Experimental data reported in patent publication US8349870B2 (priority 2008, dated 2013).
Read-outs that look alike come from different tables or passages of the source.

Key:
Assay type in all cases: in vivo
Phytophthora infestans [1] = conditions: tomato late blight, sprayed 17 h after inoculation
Plasmopara viticola = test: Test A: grape downy mildew, spray after inoculation, visual disease rating (% disease control); conditions: 100 = 100% disease control, 0 = no control
From the text: General protocol for preparing test suspensions for Test A-C: The test compounds were first dissolved in acetone in an amount equal to 3% of the final volume and then suspended at the desired concentration (in ppm) in acetone and purified water (50/50 mix by volume) containing 250 ppm of the surfactant Trem® 014 (polyhydric alcohol esters). The resulting test suspensions were then used in Tests A-C. Spraying a 200 ppm test suspension to the point of run-off on the test plants was equivalent to a rate of 500 g/ha.
Grape seedlings were inoculated with a spore suspension of Plasmopara viticola (the causal agent of grape downy mildew) and incubated in a saturated atmosphere at 20° C. for 24 h. After a short drying period, the test suspension was sprayed to the point of run-off on the grape seedlings, which were then moved to a growth chamber at 20° C. for 5 days, after which time the grape seedling were placed back into a saturated atmosphere at 20° C. for 24 h. Upon removal, visual disease ratings were made.
Results for Tests A-C are given in Table A. In the table, a rating of 100 indicates 100% disease control and a rating of 0 indicates no disease control (relative to the controls). A dash (-) indicates no test results, “*” indicates compound was tested at 40 ppm and “**” indicates compound was tested at 10 ppm.

Phytophthora infestans [2] = conditions: tomato late blight, sprayed the day before inoculation

Compound | Test C rating (% disease control) (Phytophthora infestans [1]; "*" compound tested at 40 ppm) [%] | Test A rating (% disease control) (Plasmopara viticola; "*" compound tested at 40 ppm) [%] | Test B rating (% disease control) (Phytophthora infestans [2]; "*" compound tested at 40 ppm) [%] | Test C rating (% disease control) (Phytophthora infestans [1]; "**" compound tested at 10 ppm) [%] | Test A rating (% disease control) (Plasmopara viticola; "**" compound tested at 10 ppm) [%] | Test B rating (% disease control) (Phytophthora infestans [2]; "**" compound tested at 10 ppm) [%]
Cc1ccc(C)c(N=C(C#N)N2CCC(c3nc(C4=NOC(c5ccccc5)C4)cs3)CC2)c1 (stereo not drawn) [compound 32] | 0 | 31 | 58 |  |  | 
Cc1ccc(C)c(S(=O)(=O)NC(=O)N2CCC(c3nc(C4=NOC(c5ccccc5)C4)cs3)CC2)c1 (stereo not drawn) [compound 33] | 0 | 0 | 0 |  |  | 
CONC(=Nc1cc(C)ccc1C)N1CCC(c2nc(C3=NOC(c4c(F)cccc4F)C3)cs2)CC1 (stereo not drawn) [compound 34] | 97 | 100 | 100 |  |  | 
CNC(=Nc1cc(C)ccc1C)N1CCC(c2nc(C3=NOC(c4c(F)cccc4F)C3)cs2)CC1 (stereo not drawn) [compound 35] | 26 | 0 | 86 |  |  | 
Cc1ccc(C)c(C(=O)NC(=O)N2CCC(c3nc(C4=NOC(c5c(F)cccc5F)C4)cs3)CC2)c1 (stereo not drawn) [compound 36] | 99 | 0 | 99 |  |  | 
Cc1ccc(C)c(C(=O)NC(=O)N2CCC(c3nc(C4=NOC(c5ccccc5F)C4)cs3)CC2)c1 (stereo not drawn) [compound 37] | 0 | 0 | 63 |  |  | 
Cc1ccc(C)c(N=C(N(C)C)N2CCC(c3nc(C4=NOC(c5c(F)cccc5F)C4)cs3)CC2)c1 (stereo not drawn) [compound 38] | 0 | 8 | 33 |  |  | 
CCONC(=Nc1cc(C)ccc1C)N1CCC(c2nc(C3=NOC(c4c(F)cccc4F)C3)cs2)CC1 (stereo not drawn) [compound 39] | 97 | 99 | 100 |  |  | 
Cc1ccc(C)c(C(=O)C(=O)N2CCC(c3nc(C4=NOC(c5ccccc5F)C4)cs3)CC2)c1 (stereo not drawn) [compound 40] | 98 | 99 | 100 |  |  | 
Cc1cc(C(F)(F)F)nn1C(=O)C(=O)N1CCC(c2nc(C3=NOC(c4ccccc4F)C3)cs2)CC1 (stereo not drawn) [compound 41] | 0 | 17 | 26 |  |  | 
Cc1ccc(C)c(N=C(NC#N)N2CCC(c3nc(C4=NOC(c5c(F)cccc5F)C4)cs3)CC2)c1 (stereo not drawn) [compound 42] | 99 | 99 | 100 |  |  | 
Cc1cc(C(F)(F)F)nn1C(=O)C(=O)N1CCC(c2nc(C3=NOC(c4c(F)cccc4F)C3)cs2)CC1 (stereo not drawn) [compound 43] | 0 | 0 | 25 |  |  | 
O=C(C(=O)N1CCC(c2nc(C3=NOC(c4ccccc4F)C3)cs2)CC1)c1ccccc1 (stereo not drawn) [compound 45] | 0 | 0 | 0 |  |  | 
O=C(C(=O)N1CCC(c2nc(C3=NOC(c4ccccc4F)C3)cs2)CC1)c1cccs1 (stereo not drawn) [compound 46] | 0 | 0 | 0 |  |  | 
O=C(C(=O)N1CCC(c2nc(C3=NOC(c4ccccc4F)C3)cs2)CC1)c1ccco1 (stereo not drawn) [compound 47] | 0 | 85 | 33 |  |  | 
CCC(O)C(=O)N1CCC(c2nc(C3=NOC(c4c(F)cccc4F)C3)cs2)CC1 (stereo not drawn) [compound 48] | 91 | 88 | 100 |  |  | 
CC(C)C(O)C(=O)N1CCC(c2nc(C3=NOC(c4c(F)cccc4F)C3)cs2)CC1 (stereo not drawn) [compound 49] | 100 | 97 | 98 |  |  | 

Compound | Test C rating (% disease control) (Phytophthora infestans [1]; "*" compound tested at 40 ppm) [%] | Test A rating (% disease control) (Plasmopara viticola; "*" compound tested at 40 ppm) [%] | Test B rating (% disease control) (Phytophthora infestans [2]; "*" compound tested at 40 ppm) [%] | Test C rating (% disease control) (Phytophthora infestans [1]; "**" compound tested at 10 ppm) [%] | Test A rating (% disease control) (Plasmopara viticola; "**" compound tested at 10 ppm) [%] | Test B rating (% disease control) (Phytophthora infestans [2]; "**" compound tested at 10 ppm) [%]
Cc1cc(C)c(C(=O)C(=O)N2CCC(c3nc(C4=NOC(c5ccccc5F)C4)cs3)CC2)c(C)c1 (stereo not drawn) [compound 51] | 0 | 0 | 52 |  |  | 
Cc1ccc(C)c(C(=O)C(=O)N2CCC(c3nc(C4=NOC(c5c(F)cccc5F)C4)cs3)CC2)c1 (stereo not drawn) [compound 52] | 96 | 100 | 100 |  |  | 
CS(=O)(=O)CC(=O)N1CCC(c2nc(C3=NOC(c4c(F)cccc4F)C3)cs2)CC1 (stereo not drawn) [compound 62] | 95 | 99 | 99 |  |  | 
N#CCC(=O)N1CCC(c2nc(C3=NOC(c4c(F)cccc4F)C3)cs2)CC1 (stereo not drawn) [compound 63] | 92 | 94 | 100 |  |  | 
CC(=O)OCC(=O)N1CCC(c2nc(C3=NOC(c4c(F)cccc4F)C3)cs2)CC1 (stereo not drawn) [compound 64] | 68 | 80 | 100 |  |  | 
CC(=O)C(=O)N1CCC(c2nc(C3=NOC(c4c(F)cccc4F)C3)cs2)CC1 (stereo not drawn) [compound 65] | 99 | 88 | 100 |  |  | 
CCCC(=O)C(=O)N1CCC(c2nc(C3=NOC(c4c(F)cccc4F)C3)cs2)CC1 (stereo not drawn) [compound 67] | 99 | 100 | 100 |  |  | 
CC(C)C(=O)C(=O)N1CCC(c2nc(C3=NOC(c4c(F)cccc4F)C3)cs2)CC1 (stereo not drawn) [compound 68] | 93 | 99 | 100 |  |  | 
CC(C)CC(=O)C(=O)N1CCC(c2nc(C3=NOC(c4c(F)cccc4F)C3)cs2)CC1 (stereo not drawn) [compound 69] | 64 | 99 | 84 |  |  | 
CCC(C)C(=O)C(=O)N1CCC(c2nc(C3=NOC(c4c(F)cccc4F)C3)cs2)CC1 (stereo not drawn) [compound 70] | 88 | 100 | 100 |  |  | 
O=C(C(=O)N1CCC(c2nc(C3=NOC(c4c(F)cccc4F)C3)cs2)CC1)c1ccco1 (stereo not drawn) [compound 72] | 99 | 100 | 100 |  |  | 
CCCCCCC(=O)N1CCC(c2nc(C3=NOC(c4c(F)cccc4F)C3)cs2)CC1 (stereo not drawn) [compound 73] | 99 | 99 | 100 |  |  | 
O=C(COCC(F)(F)F)N1CCC(c2nc(C3=NOC(c4c(F)cccc4F)C3)cs2)CC1 (stereo not drawn) [compound 74] |  |  |  | 97 | 100 | 10
O=C(COCCC(F)(F)F)N1CCC(c2nc(C3=NOC(c4c(F)cccc4F)C3)cs2)CC1 (stereo not drawn) [compound 75] |  |  |  | 97 | 100 | 100
O=C(CC1CCCC(C(F)(F)F)C1)N1CCC(c2nc(C3=NOC(c4c(F)cccc4F)C3)cs2)CC1 (stereo not drawn) [compound 76] | 0 | 66 | 67 |  |  | 
O=C(CCOCC(F)(F)F)N1CCC(c2nc(C3=NOC(c4c(F)cccc4F)C3)cs2)CC1 (stereo not drawn) [compound 77] |  |  |  | 99 | 100 | 100
methyl 4-[4-(4,5-dihydro-5-phenyl-3-isoxazoly)-2-thiazolyl]-N-(2,5-dimethylphenyl)-1-piperidinecarboximidate [Example 3] | 99 | 99 | 100 |  |  | 
